Measurements taken from article PMC8962522, “Direct interaction of TrkA/CD44v3 is essential for NGF-promoted aggressiveness of breast cancer cells” (Journal of Experimental & Clinical Cancer Research : CR, 2022).
Entries after “also recorded” stand apart in the source; their conditions may differ.

Tests used:
[1] = tested on: MDA-MB-231 cells; test: Clonogenicity assay, MDA-MB-231; type: cell-based; conditions: peptide 50 ng/mL, 2% FBS; versus control cells or scramble peptide; siCD44v3: 10 days after siRNA transfection
Protocol: The clonogenicity assay was performed to assess cell survival. MDA-MB-231 cells (250 cells/mL) were seeded into 6 plate wells (2% FBS medium; 2 mL/well). When the cells attached (within 3 h), they were treated with the peptide (scramble or P4; 50 ng/mL) or no peptide (control) and incubated for 24 h. The next day, a second-round treatment was performed. Three days later, the medium was changed, and the cells were incubated for another 5 days. After 10 days of culture, the medium was removed, and the cells were washed twice (PBS 1×), fixed (4% PAF for 30 min at RT), colored (violet crystal 2%; 30 min; RT) and washed twice (distilled water). Representative pictures of one well were taken, and the colonies were counted.
Therefore, in this study, we assessed TrkA binding to CD44v3 in MDA-MB-231 cells, which were used as TNBC model cells. […] Therefore, we evaluated the physiological consequences of TrkA/CD44v3 complex dissociation induced by CD44v3 mimetic peptide 4 on MDA-MB-231 cell phenotypes (Fig. 4). […] We first determined the effect of CD44v3 on the length-to-width (l/w) ratio of the cells (elongation factor) (Fig. 4C-E). […]
Fig. 4 CD44v3 mimetic peptide 4 inhibits MDA-MB-231 breast cancer cell growth and migration/invasion. Clonogenic MDA-MB-231 cell growth was measured after 10 days in the presence of a scramble peptide (SP) or CD44v3 mimetic peptide (P4) (A, B). […]

[2] = tested on: RhoA in MDA-MB-231 cells; test: AB-FRET RhoA activation, MDA-MB-231 with RhoA biosensor; type: cell-based
Protocol: MDA-MB-231 native or KD cells were seeded (5000 cells/well; ovn, 37 °C) in a chambered coverglass system (Lab-Tek®) coated with a type I collagen matrix (100 μg/mL; Corning). These cells were transfected using the pBabe-puro-RhoA plasmid (0.15 μg; Addgene plasmid #12602) diluted in a buffer solution (JetOPTIMUS® buffer) and a transfection agent (TA; 10 min). The mixture was incorporated into the culture medium (4 h; 37 °C). Two to three hours before image acquisition, the cells expressing the RhoA biosensor were starved in fresh EMEM containing 0.1% FBS and no phenol red. […]
To further elucidate the mechanism of action of CD44v3 mimetic peptide 4, we studied its effect on the TrkA signaling pathway. […] Additionally, to confirm that this effect was independent of TrkA phosphorylation, we measured RhoA activation in MDA-MB-231 cells expressing dead TrkA kinase, which cannot be phosphorylated (Fig. 5D). […]
Fig. 5 CD44v3 is implicated in the phospho-TrkA-independent activation of RhoA GTPase. Phosphorylation of TrkA was measured in the presence of a scramble peptide or CD44v3 mimetic peptide 4 (P4) in the presence or absence of NGF (A). […] Phosphorylation of TrkA and downstream Akt in wild-type MDA-MB-231 and MDA-MB-231 cells expressing kinase-dead TrkA, as determined by western blotting (D). […]

Q: Which “effect on clonogenic growth of MDA-MB-231 cells” value [1] does the source give for “IDDDEDFISST [Peptide 4, mimetic peptide 4 (…) corresponding to the C-terminal region of CD44v3]” here?
A: reduced the proportion of MDA-MB-231 colony forming units by two-thirds

Q: What about the “Mean donor peak (AB-FRET, RhoA activation), with NGF” value [2] of the same sequence?
A: 1.23

Q: What about the “NGF-induced FRET signal (RhoA activity), in words” value ([2]; statement: NGF increased the signal with scramble peptide, not with peptide 4, listed as CD44v3 mimetic peptide 4) of the same sequence?
A: NGF increased the FRET signal in the presence of the scramble peptide but not with CD44v3 mimetic peptide 4; also recorded: inhibits TrkA phosphorylation-independent RhoA activation induced by NGF
